Patent US20260328779A1, “METHODS AND COMPOSITIONS FOR THE DIAGNOSIS AND TREATMENT OF IGA NEPHROPATHY” (Beth Israel Deaconess Medical Center, Inc., priority 2022, published 2026)

Tested on: anti-Tn antibodies
Test: Inhibition of anti-Tn antibody binding to Tn(+)matrix beads (fluorescent anti-IgM imaging)
Settings: 20 mM preincubation, 30 min on ice; anti-human IgM detection
Description: To investigate whether the interaction of the anti-Tn antibodies to the Tn(+)matrix is Tn antigen-dependent, fluorescent-tagged secondary antibodies were used to image the antibodies bound to the Tn(+)matrix. Strong staining for bound IgM (FIG. 3C, upper panel, green fluorescent) was observed, but no significant staining for either IgG or IgA (FIG. 3C, middle and bottom panels). The IgG and IgA1 levels in the bound material are thus either relatively low or these antigens could be cryptic within complexes and inaccessible in the context of the beads. […]
~50 ml of human sera was mixed with 1 ml of Tn(+)matrix beads (50% slurry in PBS) at 4° C. […] The concentration of eluted protein was determined by BCA assay (Cat #23225, Thermo Fisher Scientific). Each fraction (Input, Flow through (FT), Washes) was proportionally loaded, except elution 10 ml, and analyzed on SDS-PAGE, and stained with Coomassie, or transferred to nitrocellulose membrane (Cat #1704158, Bio-Rad) using Trans-Blot Turbo Transfer System (Bio-Rad). […] After washing 3× with TBST for 10 min, the signals were analyzed on an Amersham™ Imager 600 (GE Healthcare Life Sciences) using SuperSignal™ West Pico chemiluminescent substrate (Cat #34578, Thermo Scientific). […] The beads were washed twice with chilled 1 ml of PBS, and analyzed using a microscope (AMG EVOS FL digital inverted microscope, Fisher Scientific, ×100 magnification). […]

inhibition of binding of antibodies to the Tn(+)matrix: completely inhibited
Compound: CO[C@H]1O[C@H](CO)[C@H](O)[C@H](O)[C@H]1NC(C)=O [α-methylGalNAc]
